Reference: patent publication US10188667B2, “Pharmaceutical compositions and methods of use of 4-pregenen-11β-17-21-triol-3,20-dione derivatives” (ALLERGAN, INC., priority 2011, dated 2019)

Molecular target: GAL4(DBD)-MR(LBD) (Homo sapiens (Human), UniProt P08235)
Experiment: Mineralocorticoid receptor transactivation, UAS-bla HEK 293T CELLSENSOR reporter assay, agonist mode
Format: cell-based
Conditions: 100 nM, control compound aldosterone
Description: Mineralocorticoid receptor (MR) activation potency was assessed using a HEK 293T cell line containing the UAS-bla reporter (UAS-bla HEK 293T CELLSENSOR®). This cell line was stably cotransfected with an expression construct containing β-lactamase cDNA under control of the GAL4 Upstream Activator Sequence (UAS) and another expression construct encoding for the fusion protein GAL4(DBD)-MR(LBD). […] All assays were performed as 10-point dose responses using a half log-fold dilution series starting with a maximum compound concentration of 100 nM. The compounds were incubated for 16 hours. The activation of the fusion protein GAL4(DBD)-MR(LBD) leads to expression of the reporter β-lactamase which is detected by the conversion of a FRET substrate in a ratiometric assay format. This functional assay allows for measurement of receptor agonism by compounds and can be used to determine compound potency and selectivity. Assay reproducibility was determined by calculating Z′ values for untreated versus maximum stimulation. The Z′ value was greater than 0.6, indicating good reproducibility of the assay format.

Sequence of GAL4(DBD)-MR(LBD) (P08235 726-964): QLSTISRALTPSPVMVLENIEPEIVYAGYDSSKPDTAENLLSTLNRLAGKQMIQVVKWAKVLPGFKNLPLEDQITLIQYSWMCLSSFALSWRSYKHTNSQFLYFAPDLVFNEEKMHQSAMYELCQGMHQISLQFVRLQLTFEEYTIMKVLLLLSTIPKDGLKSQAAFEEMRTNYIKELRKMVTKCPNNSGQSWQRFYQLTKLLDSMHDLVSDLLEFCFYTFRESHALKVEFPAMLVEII

Compared with C[C@]12CCC(=O)C=C1CC[C@@H]1[C@@H]2[C@@H](O)C[C@@]2(C)[C@H]1CC[C@]2(OC(=O)c1ccccc1)C(=O)CO [drawing 28], C[C@]12CCC(=O)C=C1CC[C@@H]1[C@@H]2[C@@H](O)C[C@@]2(C)[C@H]1CC[C@]2(OC(=O)Cc1ccccc1)C(=O)CO [drawing 22] is higher in “% Activation at 100 nM” value: 62% for the first, 81% for the second.

Going from C[C@]12CCC(=O)C=C1CC[C@@H]1[C@@H]2[C@@H](O)C[C@@]2(C)[C@H]1CC[C@]2(OC(=O)C1CCCC1)C(=O)CO [drawing 31] to CCC(=O)O[C@]1(C(=O)CO)CC[C@H]2[C@@H]3CCC4=CC(=O)CC[C@]4(C)[C@H]3[C@@H](O)C[C@@]21C [drawing 25], the “% Activation at 100 nM” value rises from 27% to 76%.

Going from CCCCCCC(=O)O[C@]1(C(=O)CO)CC[C@H]2[C@@H]3CCC4=CC(=O)CC[C@]4(C)[C@H]3[C@@H](O)C[C@@]21C [drawing 29] to CCCCCC(=O)O[C@]1(C(=O)CO)CC[C@H]2[C@@H]3CCC4=CC(=O)CC[C@]4(C)[C@H]3[C@@H](O)C[C@@]21C [drawing 27], the “% Activation at 100 nM” value rises from 56% to 64%.

First: CCCC(=O)O[C@]1(C(=O)CO)CC[C@H]2[C@@H]3CCC4=CC(=O)CC[C@]4(C)[C@H]3[C@@H](O)C[C@@]21C [drawing 24]
Second: CCCCCCC(=O)O[C@]1(C(=O)CO)CC[C@H]2[C@@H]3CCC4=CC(=O)CC[C@]4(C)[C@H]3[C@@H](O)C[C@@]21C [drawing 26]
The “% Activation at 100 nM” value of the first is higher: 77% for the first, 72% for the second.

Compared with CC(C)C(=O)O[C@]1(C(=O)CO)CC[C@H]2[C@@H]3CCC4=CC(=O)CC[C@]4(C)[C@H]3[C@@H](O)C[C@@]21C [drawing 30], C[C@]12CCC(=O)C=C1CC[C@@H]1[C@@H]2[C@@H](O)C[C@@]2(C)[C@H]1CC[C@]2(O)C(=O)CO [drawing 23] is higher in “% Activation at 100 nM” value: 62% for the first, 75% for the second.

Same assay, conditions: 16 hours incubation, maximum concentration 100 nM, read-out: EC50 (nM) MR (Table 4: mineralocorticoid receptor potency)

Compared with C[C@]12CCC(=O)C=C1CC[C@@H]1[C@@H]2[C@@H](O)C[C@@]2(C)[C@H]1CC[C@]2(OC(=O)c1ccccc1)C(=O)CO [drawing 28], C[C@]12CCC(=O)C=C1CC[C@@H]1[C@@H]2[C@@H](O)C[C@@]2(C)[C@H]1CC[C@]2(OC(=O)Cc1ccccc1)C(=O)CO [drawing 22] is 2.6-fold lower in EC50: 7.46 nM for the first, 2.85 nM for the second.

First: C[C@]12CCC(=O)C=C1CC[C@@H]1[C@@H]2[C@@H](O)C[C@@]2(C)[C@H]1CC[C@]2(OC(=O)C1CCCC1)C(=O)CO [drawing 31]
Second: CCC(=O)O[C@]1(C(=O)CO)CC[C@H]2[C@@H]3CCC4=CC(=O)CC[C@]4(C)[C@H]3[C@@H](O)C[C@@]21C [drawing 25]
The EC50 of the first is higher: greater than 100 nM for the first, 3.17 nM for the second. The second is the more potent here.

Going from CCCCCCC(=O)O[C@]1(C(=O)CO)CC[C@H]2[C@@H]3CCC4=CC(=O)CC[C@]4(C)[C@H]3[C@@H](O)C[C@@]21C [drawing 29] to CCCCCC(=O)O[C@]1(C(=O)CO)CC[C@H]2[C@@H]3CCC4=CC(=O)CC[C@]4(C)[C@H]3[C@@H](O)C[C@@]21C [drawing 27], the EC50 falls from 9.29 nM to 5.68 nM (1.6-fold).

Compared with CCCC(=O)O[C@]1(C(=O)CO)CC[C@H]2[C@@H]3CCC4=CC(=O)CC[C@]4(C)[C@H]3[C@@H](O)C[C@@]21C [drawing 24], CCCCCCC(=O)O[C@]1(C(=O)CO)CC[C@H]2[C@@H]3CCC4=CC(=O)CC[C@]4(C)[C@H]3[C@@H](O)C[C@@]21C [drawing 26] is 1.8-fold higher in EC50: 2.94 nM for the first, 5.27 nM for the second.

Compared with CC(C)C(=O)O[C@]1(C(=O)CO)CC[C@H]2[C@@H]3CCC4=CC(=O)CC[C@]4(C)[C@H]3[C@@H](O)C[C@@]21C [drawing 30], C[C@]12CCC(=O)C=C1CC[C@@H]1[C@@H]2[C@@H](O)C[C@@]2(C)[C@H]1CC[C@]2(O)C(=O)CO [drawing 23] is 5.4-fold lower in EC50: 15.6 nM for the first, 2.9 nM for the second. The second is the more potent here.

Tested on: not given
Experiment: not given
Conditions: patients; eye drops; compared to synthetic GCs such as dexamethasone, prednisolone, fluorometholone; cited from earlier work

In the case of C[C@]12CCC(=O)C=C1CC[C@@H]1[C@@H]2[C@@H](O)C[C@@]2(C)[C@H]1CC[C@]2(O)C(=O)CO [cortisol], the “effect on intraocular pressure” value is given as “minimal effect on intraocular pressure”.

Molecular target: Glucocorticoid receptor (GR) (Homo sapiens (Human), UniProt P04150)
Sequence (P04150 whole entry): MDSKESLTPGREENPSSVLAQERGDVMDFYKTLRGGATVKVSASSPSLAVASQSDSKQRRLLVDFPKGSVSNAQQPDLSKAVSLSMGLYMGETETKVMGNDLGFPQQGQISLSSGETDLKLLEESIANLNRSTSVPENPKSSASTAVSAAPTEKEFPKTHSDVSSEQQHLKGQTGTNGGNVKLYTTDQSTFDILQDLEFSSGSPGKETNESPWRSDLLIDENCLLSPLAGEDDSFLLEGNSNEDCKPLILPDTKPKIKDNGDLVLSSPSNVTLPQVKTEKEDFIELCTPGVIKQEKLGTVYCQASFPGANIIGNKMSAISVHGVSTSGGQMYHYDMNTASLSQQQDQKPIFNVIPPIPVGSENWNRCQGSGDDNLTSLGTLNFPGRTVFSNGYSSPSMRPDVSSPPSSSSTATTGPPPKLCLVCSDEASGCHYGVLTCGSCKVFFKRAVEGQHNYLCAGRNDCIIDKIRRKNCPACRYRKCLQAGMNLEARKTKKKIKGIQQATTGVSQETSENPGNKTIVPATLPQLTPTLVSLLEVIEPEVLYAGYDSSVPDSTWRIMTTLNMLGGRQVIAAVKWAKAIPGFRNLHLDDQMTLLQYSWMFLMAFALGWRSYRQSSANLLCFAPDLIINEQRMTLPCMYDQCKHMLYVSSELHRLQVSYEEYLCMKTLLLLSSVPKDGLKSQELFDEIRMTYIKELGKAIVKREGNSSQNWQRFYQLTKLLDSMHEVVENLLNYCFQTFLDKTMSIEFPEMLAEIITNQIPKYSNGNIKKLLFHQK
Experiment: Glucocorticoid receptor transactivation, MMTV-bla HeLa CELLSENSOR reporter assay, agonist mode
Format: cell-based
Conditions: 100 nM, control compound dexamethasone

First: CCCCCC(=O)O[C@]1(C(=O)CO)CC[C@H]2[C@@H]3CCC4=CC(=O)CC[C@]4(C)[C@H]3[C@@H](O)C[C@@]21C [drawing 14]
Second: CCCCCCC(=O)O[C@]1(C(=O)CO)CC[C@H]2[C@@H]3CCC4=CC(=O)CC[C@]4(C)[C@H]3[C@@H](O)C[C@@]21C [drawing 15]
The “% Activation at 100 nM” value of the first is higher: 65% for the first, 47% for the second.

Compared with C[C@]12CCC(=O)C=C1CC[C@@H]1[C@@H]2[C@@H](O)C[C@@]2(C)[C@H]1CC[C@]2(OC(=O)Cc1ccccc1)C(=O)CO [drawing 20], C[C@]12CCC(=O)C=C1CC[C@@H]1[C@@H]2[C@@H](O)C[C@@]2(C)[C@H]1CC[C@]2(OC(=O)c1ccccc1)C(=O)CO [drawing 12] is higher in “% Activation at 100 nM” value: 5% for the first, 85% for the second.

Compared with CCCCCCC(=O)O[C@]1(C(=O)CO)CC[C@H]2[C@@H]3CCC4=CC(=O)CC[C@]4(C)[C@H]3[C@@H](O)C[C@@]21C [drawing 19], CCCC(=O)O[C@]1(C(=O)CO)CC[C@H]2[C@@H]3CCC4=CC(=O)CC[C@]4(C)[C@H]3[C@@H](O)C[C@@]21C [drawing 13] is higher in “% Activation at 100 nM” value: 15% for the first, 86% for the second.

First: C[C@]12CCC(=O)C=C1CC[C@@H]1[C@@H]2[C@@H](O)C[C@@]2(C)[C@H]1CC[C@]2(O)C(=O)CO [drawing 18]
Second: CC(C)C(=O)O[C@]1(C(=O)CO)CC[C@H]2[C@@H]3CCC4=CC(=O)CC[C@]4(C)[C@H]3[C@@H](O)C[C@@]21C [drawing 17]
The “% Activation at 100 nM” value of the first is lower: 43% for the first, 84% for the second.

Compared with CCC(=O)O[C@]1(C(=O)CO)CC[C@H]2[C@@H]3CCC4=CC(=O)CC[C@]4(C)[C@H]3[C@@H](O)C[C@@]21C [drawing 16], C[C@]12CCC(=O)C=C1CC[C@@H]1[C@@H]2[C@@H](O)C[C@@]2(C)[C@H]1CC[C@]2(OC(=O)C1CCCC1)C(=O)CO [drawing 11] is higher in “% Activation at 100 nM” value: 85% for the first, 88% for the second.

Same assay, conditions: 5 hours incubation, maximum concentration 100 nM

First: CCCCCC(=O)O[C@]1(C(=O)CO)CC[C@H]2[C@@H]3CCC4=CC(=O)CC[C@]4(C)[C@H]3[C@@H](O)C[C@@]21C [drawing 14]
Second: CCCCCCC(=O)O[C@]1(C(=O)CO)CC[C@H]2[C@@H]3CCC4=CC(=O)CC[C@]4(C)[C@H]3[C@@H](O)C[C@@]21C [drawing 15]
The EC50 of the first is 1.9-fold lower: 3.25 nM for the first, 6.04 nM for the second.

Going from C[C@]12CCC(=O)C=C1CC[C@@H]1[C@@H]2[C@@H](O)C[C@@]2(C)[C@H]1CC[C@]2(OC(=O)Cc1ccccc1)C(=O)CO [drawing 20] to C[C@]12CCC(=O)C=C1CC[C@@H]1[C@@H]2[C@@H](O)C[C@@]2(C)[C@H]1CC[C@]2(OC(=O)c1ccccc1)C(=O)CO [drawing 12], the EC50 falls from greater than 100 nM to 1.41 nM.

Compared with CCCCCCC(=O)O[C@]1(C(=O)CO)CC[C@H]2[C@@H]3CCC4=CC(=O)CC[C@]4(C)[C@H]3[C@@H](O)C[C@@]21C [drawing 19], CCCC(=O)O[C@]1(C(=O)CO)CC[C@H]2[C@@H]3CCC4=CC(=O)CC[C@]4(C)[C@H]3[C@@H](O)C[C@@]21C [drawing 13] is lower in EC50: greater than 100 nM for the first, 1.97 nM for the second.

CC(C)C(=O)O[C@]1(C(=O)CO)CC[C@H]2[C@@H]3CCC4=CC(=O)CC[C@]4(C)[C@H]3[C@@H](O)C[C@@]21C [drawing 17] and CCC(=O)O[C@]1(C(=O)CO)CC[C@H]2[C@@H]3CCC4=CC(=O)CC[C@]4(C)[C@H]3[C@@H](O)C[C@@]21C [drawing 16] are within 1.5-fold of each other in EC50: 7.07 nM for the first, 6.31 nM for the second.

For C[C@]12CCC(=O)C=C1CC[C@@H]1[C@@H]2[C@@H](O)C[C@@]2(C)[C@H]1CC[C@]2(OC(=O)C1CCCC1)C(=O)CO [drawing 11], the EC50 was 1.35 nM.
